In one test the test system is LTB4. The test can be described thus: Reverse passive Arthus pleurisy assay, inflammatory mediator release: LTB4. The note with it: 25 mg/kg p.o., 3 hours before challenge. Type of test: in vivo, rat (male Lewis).
In test [1] the test system is 5-lipoxygenase in human whole blood. Put plainly: Inhibition of 5-lipoxygenase in human whole blood (LTB4). Type of test: cell-based. A digest of the protocol: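 Donor whole blood was preincubated with compound (0.1% final DMSO) 10 min at 37° C, then stimulated with 30 μM A23187 for 20 min at 27° C and stopped with EGTA on ice. Plasma LTB4 quantified by RIA or ELISA as ng/10^6 neutrophils; effects given as percent change from control.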

For `CC(C(=O)N(C)O)c1ccc(-c2ccc(OCc3csc(-c4ccccc4)n3)cc2)cc1` (stereo not drawn) [Example 21, N-Hydroxy-N,α-dimethyl-4'-[(2-phenylthiazol-4-yl)methoxy][1,1'-biphenyl]-4-acetamide], the “% Inhibition of LTB4 Synthesis” value with LTB4 came to 8%. The molecule also had an IC50 in test [1] of 7.8 µM. Also, in test [1] (at 25 μM), the “% Inhibition of LTB4” value is reported as 85%.

(Values after patent US5364944A, “Substituted benzoylbenzene-, biphenyl- and 2-oxazole- alkanoic acid compounds” (American Home Products Corporation, priority 1993, dated 1994).)
